This is an account of results in ChEMBL document CHEMBL1145297, “Synthesis, aerobic cytotoxicity, and radiosensitizing activity of novel 2,4-dinitrophenylamine tethered 5-fluorouracil and hydroxyurea” (Bioorg Med Chem Lett, 2006).

In data set [1] the test system is HT-29. The data set is described as follows: Cytotoxicity against HT29 cell line without 4 Gy [60Co]-induced irradiation by MTT assay relative to control. The data set is classed as cell-based. The conditions noted are these: human. Background: Formazan colour is commonly taken as a measure of viable cells.
Data set [2] relates to HT-29. The data set is described as follows: Cytotoxicity against 4 Gy [60Co] irradiated HT29 cell line by MTT assay relative to control. The data set is classed as cell-based. The conditions noted are these: human.
Data set [3] has as its system HT-29. The data set is described as follows: Radiosensitizing activity in 4 Gy [60Co] irradiated HT29 cells. The data set is classed as functional, cell-based. The conditions noted are these: Homo sapiens.
Data set [4] concerns HT-29. The experiment in a line: Cytotoxicity against HT29 cell line below 2.5 uM. The conditions noted are these: human. The data set is classed as cell-based.
The subject of data set [5] is HT-29. The data set is described as follows: Inhibition of viability in 4 Gy [60Co] irradiated HT29 cells at 10 uM relative to control. The data set is classed as functional, Homo sapiens.
Data set [6] concerns SP2. The experiment in a line: Radiosensitizing activity in SP2 cell line. The data set is classed as functional, cell-based. The conditions noted are these: Mus musculus.
The subject of data set [7] is HT-29. The data set is described as follows: Radiosensitizing activity in 4 Gy [60Co] irradiated HT29 cells at 2.5 uM. The data set is classed as functional, cell-based. The conditions noted are these: Homo sapiens.

Calls of active or inactive are those of the source. No cut-off for these calls is given here.

Regarding `NC(=O)NO` [HYDROXYUREA], the Activity in data set [1] and in data set [2] was 25% each time.
Regarding `O=c1[nH]cc(F)c(=O)[nH]1` [FLUOROURACIL], the outcome in data set [3] was inactive. Further, the Activity in data set [1] is 65%; in data set [4], “Not Active”; in data set [2], 65%.
Take `O=c1[nH]cc(F)c(=O)n1CCCNc1ccc([N+](=O)[O-])cc1[N+](=O)[O-]`: the Activity result in data set [1] is “Not Active”; in data set [5], 60%; in data set [2] it was “Not Active”. For the same compound, the outcome in data set [6] and in data set [7] was Active.
For the compound `CCCNc1ccc([N+](=O)[O-])cc1[N+](=O)[O-]`, in data set [3], the outcome was inactive. The Activity in data set [1] and in data set [2] was 20% throughout.
Regarding `NC(=O)NOCCCNc1ccc([N+](=O)[O-])cc1[N+](=O)[O-]`, the figures for the Activity result in data set [1], in data set [5] and in data set [2] were “Not Active”, 60% and “Not Active”, respectively. The outcome in data set [6] and in data set [7] was Active.
